Measurements as given in patent US20050282818A1, “Ubiquitin ligase inhibitors” (Rigel Pharmaceuticals, Inc., priority 2004, published 2005).

Experiments:
APC11/APC2 = APC11/APC2 (Homo sapiens, UniProt Q9NYG5+Q9UJX6); test: APC-11/APC-2 ligase assay (APC auto ubiquitination); format: biochemical; conditions: APC assay
In short: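 His-tagged APC was captured on nickel plates with human E1 (5 ng/well), UbcH5c (20 ng/well), APC (100 ng/well) and Flag-ubiquitin (100 ng/well) in a Tris pH 7.6 reaction buffer containing 2.5 mM ATP, for 1 hour at room temperature. Read-out was anti-Flag/HRP chemiluminescence. IC50 was set against a DMSO control, typically from 6 or 8 concentrations.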

[1] = test system: ICAM-1 expression in A549 cells; test: ICAM assay (IL-1 induced ICAM-1/CD54 expression in A549 cells); format: cell-based, human
In short: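 A549 cells, 10,000/well, preincubated with compound 1 h at 37° C, then stimulated with IL-1 (4 μl of 25 ng/ml added) for 4 h. Surface ICAM-1 detected by anti-CD54 plus anti-mouse IgG staining for 1 h, luminescent read-out after PBS washes.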

APC11/APC2, sequence (Q9NYG5 whole entry): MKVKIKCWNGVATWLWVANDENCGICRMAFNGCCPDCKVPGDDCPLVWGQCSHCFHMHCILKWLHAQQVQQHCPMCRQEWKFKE
APC11/APC2, sequence (Q9UJX6 whole entry): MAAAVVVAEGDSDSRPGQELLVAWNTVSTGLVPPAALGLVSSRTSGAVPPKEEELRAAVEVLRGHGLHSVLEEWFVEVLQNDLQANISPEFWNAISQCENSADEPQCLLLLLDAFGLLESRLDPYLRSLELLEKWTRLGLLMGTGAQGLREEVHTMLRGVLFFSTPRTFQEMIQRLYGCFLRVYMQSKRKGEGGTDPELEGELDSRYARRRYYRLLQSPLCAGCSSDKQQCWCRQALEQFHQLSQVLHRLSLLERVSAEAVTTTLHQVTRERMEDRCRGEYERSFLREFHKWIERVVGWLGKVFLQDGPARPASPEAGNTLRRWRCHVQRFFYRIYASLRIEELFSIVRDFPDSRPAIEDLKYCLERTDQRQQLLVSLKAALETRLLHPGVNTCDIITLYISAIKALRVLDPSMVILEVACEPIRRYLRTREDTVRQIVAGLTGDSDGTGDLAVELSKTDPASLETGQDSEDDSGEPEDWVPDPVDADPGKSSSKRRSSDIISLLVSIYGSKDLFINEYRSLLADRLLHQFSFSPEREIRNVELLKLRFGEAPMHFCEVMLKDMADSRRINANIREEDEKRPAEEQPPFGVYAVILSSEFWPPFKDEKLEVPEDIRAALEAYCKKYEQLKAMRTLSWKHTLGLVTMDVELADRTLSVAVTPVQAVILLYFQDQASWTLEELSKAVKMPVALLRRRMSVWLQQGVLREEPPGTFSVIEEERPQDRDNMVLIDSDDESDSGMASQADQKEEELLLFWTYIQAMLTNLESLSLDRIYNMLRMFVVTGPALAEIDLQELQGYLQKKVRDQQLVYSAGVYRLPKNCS

IC50 (APC11/APC2) | IC50 ([1]; Homo sapiens, A549, ICAM assay) | IC50 ([1]; ICAM assay) | SMILES
1 to 20 µM | ≥ 20 µM |  | O=[N+]([O-])c1ccc(Sc2nc3ccccc3s2)c2nonc12 [compound 158, 4-(1,3-benzothiazol-2-ylthio)-7-nitro-2,1,3-benzoxadiazole]
1 to 20 µM | ≥ 20 µM |  | O=S(=O)(c1c(Cl)ccc2nonc12)N1CCN(c2ncc(C(F)(F)F)cc2Cl)CC1 [compound 179, 5-chloro-4-({4-[3-chloro-5-(trifluoromethyl)pyridin-2-yl]piperazin-1-yl}sulfonyl)-2,1,3-benzoxadiazole]
< 1 µM |  |  | O=[N+]([O-])c1ccc(N2CCN(c3ncc(C(F)(F)F)cc3Cl)CC2)c2nonc12 [compound 315, 4-{4-[3-chloro-5-(trifluoromethyl)pyrindin-2-yl]piperazin-1-yl}-7-nitro-2,1,3-benzoxadiazole]
≥ 20 µM | ≥ 20 µM |  | O=S(=O)(Nc1ccc2cn[nH]c2c1)c1c(O)ccc2nonc12 [compound 339, 5-hydroxy-N-(1H-indazol-6-yl)2,1,3-benzoxadiazole-4-sulfonamide]
≥ 20 µM | ≥ 20 µM |  | O=S(=O)(c1c(N2CCC(Oc3ccccc3C(F)(F)F)CC2)ccc2nonc12)N1CCC(Oc2ccccc2C(F)(F)F)CC1 [compound 340, 5-[4-(2-{trifluoromethyl}phenoxy)piperidin-1-yl]-4-{[4-(2-{trifluoromethyl}phenoxy)piperidin-1-yl]sulfonyl}-2,1,3-benzoxadiazole]
1 to 20 µM |  | 1 to 20 µM | COc1cc(Nc2ccc(S(=O)(=O)Nc3cc(OC)c(Cl)cc3OC)c3nonc23)c(OC)cc1Cl [compound 342, N-(4-chloro-2,5-dimethoxyphenyl)-7-([4-chloro-2,5-dimethoxyphenyl]amino)-2,1,3-benzoxadiazole-4-sulfonamide]
≥ 20 µM | 1 to 20 µM |  | COc1cc(NS(=O)(=O)c2c(Cl)ccc3nonc23)c(OC)cc1Cl [compound 343, 5-chloro-N-(4-chloro-2,5-dimethoxyphenyl)-2,1,3-benzoxadiazole-4-sulfonamide]

Second part, the compound before the results:

SMILES | IC50 (APC11/APC2) | IC50 ([1]; Homo sapiens, A549, ICAM assay) | IC50 ([1]; ICAM assay)
O=[N+]([O-])c1ccc(-c2cccc(C(F)(F)F)c2)c2nonc12 [compound 309, 4-Nitro-7-[3-(trifluoromethyl)phenyl]-2,1,3-benzoxadiazole] | 1 to 20 µM | 1 to 20 µM | 
Cc1cccc(-c2ccc([N+](=O)[O-])c3nonc23)c1 [compound 310, 4-(3-Methylphenyl)-7-nitro-2,1,3-benzoxadiazole] | 1 to 20 µM | 1 to 20 µM | 
CC(C)(C)c1ccc(-c2ccc([N+](=O)[O-])c3nonc23)cc1 [compound 313, 4-(4-Tert-butylphenyl)-7-nitro-2,1,3-benzoxadiazole] | 1 to 20 µM | 1 to 20 µM | 
COc1cc(NS(=O)(=O)c2ccc(Cl)c3nonc23)c(OC)cc1Cl [compound 341, 7-chloro-N-(4-chloro-2,5-dimethoxyphenyl)-2,1,3-benzoxadiazole-4-sulfonamide] | ≥ 20 µM | 1 to 20 µM | 
COc1cc(Nc2ccc3nonc3c2S(=O)(=O)Nc2cc(OC)c(Cl)cc2OC)c(OC)cc1Cl [compound 344, N-(4-chloro-2,5-dimethoxyphenyl)-5-([4-chloro-2,5-dimethoxyphenyl]amino)-2,1,3-benzoxadiazole-4-sulfonamide] | ≥ 20 µM | ≥ 20 µM | 
